Source: patent US10639373B2, “Pyrrolobenzodiazepine antibody drug conjugates and methods of use” (priority 2015, dated 2020)

Key:
[1] = system: duplex oligonucleotides Pu-GAAATC-Py and Pu-GAAATG-Py; test: Oligonucleotide binding/alkylation assay
[2] = Exploratory single dose free drug toxicology study in rats; type: in vivo, rat; conditions: for reticulocytes: all doses, 72 hours post-dose; for reticulocyte recovery: by 168 hours post-dose; for MTD at 7 day: rat, in vivo
Experimental: An exploratory single dose toxicology study was conducted in rats comparing the C-1 (PBD bis alkylator) and DM-2 (PBD monoalkylator) free drugs. Animals received a single IV dose of C-1, DM-2, or vehicle and were monitored for a 7-day recovery period.
Toxicity was assessed by clinical observations and clinical pathology (hematology and clinical chemistry at 72 and 168 hours post-dose). In general, results were similar for DM-2 at ten times the dose level of C-1.

[3] = 100 μM compound, 50 μM DNA, 1 hour, 37° C.

In the case of `C=C1C[C@H]2C=Nc3cc(OCCCCCOc4cc5c(cc4OC)C(=O)N4CC(=C)C[C@H]4C=N5)c(OC)cc3C(=O)N2C1` [C-1, (11aS,11a′S)-8,8′-(pentane-1,5-diylbis(oxy))bis(7-methoxy-2-methylene-1,2,3,11a-tetrahydro-5H-benzo[e]pyrrolo[1,2-a][1,4]diazepin-5-one), reference compound], the “more efficiency to covalently alkylate the duplex oligonucleotides than monoamine DM-1” value [1, 3] is reported as 2-3 times, the clinical pathology ([2]; 0.2 mg/kg) is reported as “clinical pathology changes indicative of liver and kidney toxicity” and the tolerability ([2]; 0.05 and 0.1 mg/kg, single IV dose) is reported as “well tolerated with no clinical signs”. For the same compound, the reticulocytes [2] was “dose-dependent decrease in reticulocytes”, the reticulocyte recovery [2] was “recovering in the 0.05 and 0.1 mg/kg groups” and the MTD at 7 day ([2]; single IV dose) was 0.1 mg/kg. For the same compound, the main target organs ([2]; single IV dose) was “bone marrow, kidney, and liver” and the “toxic potency relative to DM-2” value ([2]; single IV dose) was “approximately ten times as potent as DM-2”.
In the case of `C=C1C[C@H]2C=Nc3cc(OC)c(OC)cc3C(=O)N2C1` [C-2, (S)-7,8-dimethoxy-2-methylene-1,2,3,11a-tetrahydro-5H-benzo[e]pyrrolo[1,2-a][1,4]diazepin-5-one], the “less efficiency in covalently alkylating the duplex oligonucleotides than dimer C-1” value [1, 3] is reported as over 50 times.
For `C=C1C[C@H]2CNc3cc(OCCCCCOc4cc5c(cc4OC)C(=O)N4CC(=C)C[C@H]4CN5)c(OC)cc3C(=O)N2C1` [C-3, (11aS,11a′S)-8,8′-(pentane-1,5-diylbis(oxy))bis(7-methoxy-2-methylene-1,2,3,10,11,11a-hexahydro-5H-benzo[e]pyrrolo[1,2-a][1,4]diazepin-5-one)], the DNA binding ([1]; imine bonds of C-1 reduced) was “completely eliminates DNA binding”.
For `C=C1C[C@H]2C=Nc3cc(OCCCCCOc4cc5c(cc4OC)C(=O)N4CC(=C)C[C@H]4C(=O)N5)c(OC)cc3C(=O)N2C1` [DM-2, (S)-7-methoxy-8-((5-(((S)-7-methoxy-2-methylene-5-oxo-2,3,5,11a-tetrahydro-1H-benzo[e]pyrrolo[1,2-a] [1,4]diazepin-8-yl)oxy)pentyl)oxy)-2-methylene-2,3-dihydro-1H-benzo[e]pyrrolo[1,2-a] [1,4]diazepine-5,11(10H,11aH)-dione], the clinical pathology ([2]; 2 mg/kg) was “clinical pathology changes indicative of liver and kidney toxicity”, the outcome ([2]; 2 mg/kg) was “euthanized in moribund condition on Day 4” and the body weight loss ([2]; 2 mg/kg, Day 2 to 4) was “approximately 14%”. For the same compound, the tolerability ([2]; 0.5 and 1 mg/kg, single IV dose) was “well tolerated”, the reticulocytes [2] was “dose-dependent decrease in reticulocytes” and the reticulocyte recovery [2] was “recovered in the 0.5 and 1 mg/kg groups”. For the same compound, the MTD at 7 day ([2]; single IV dose) was 1 mg/kg and the main target organs ([2]; single IV dose) was “bone marrow, kidney, and liver”.
